Biological target: T1, γ-secretase (Homo sapiens, UniProt P49768)
T1 construct: 293/EBNA-1 cell strain (Invitrogen) was cultured in 10% FBS (Hyclone)/DMEM (Invitrogen); host or cells: 293/EBNA-1 (HEK293) cells; only the substrate rat EphA7-HA was transfected
Assay: Analysis of EphA7 processing in EphA7-transfected 293/EBNA-1 cell strain (Western blotting with anti-HA antibody)
Format: cell-based
Parameters: dose or concentration left out as unconfirmed
Conditions: HEK293 (293/EBNA-1) cells expressing rat EphA7-HA; Compound E added to culture broth, cultured one day; compared with cells without Compound E
Protocol: Whether or not EphA7 is a substrate for γ-secretase was evaluated using HEK293 cells expressing a gene encoding EphA7 with an HA tag added to its C-terminus, in the presence of a γ-secretase inhibitor. As the γ-secretase inhibitor, (2S)-2-{[(3,5-difluorophenyl)acetyl]amino}-N-[(3S)-1-methyl-2-oxo-5-phenyl-2,3-dihydro-1H-1,4-benzodiazepin-3-yl]propanamide (hereinafter, sometimes referred to as “Compound E”) (Alexis Biochemicals) was used.
293/EBNA-1 cell strain (Invitrogen) was cultured in 10% FBS (Hyclone)/DMEM (Invitrogen) under 5% CO2 at 37° C., followed by transfection thereinto of the gene encoding rat EphA7 with an HA tag added to its C-terminus using Lipofectamine 2000 (Invitrogen). After one day culture under the same conditions, […] Compound E (γ-secretase inhibitor; Alexis Biochemicals) was added to the culture broth. Cells were cultured for another day under the same conditions. Then, the transfected HEK293 cells were collected with PBS (Sigma) and sonicated with a sonicator (Taitec VP-5S) to disrupt cells. Then, the quantity of protein was determined with Protein Assay Kit (BioRad). […]
First, the substrate for γ-secretase is cut off its extracellular domain by other protease. […] Since reactions proceed very quickly from the first cleavage to the final degradation by proteasome, the substrate is […] when detected by Western blotting.

## C[C@H](NC(=O)Cc1cc(F)cc(F)c1)C(=O)N[C@H]1N=C(c2ccccc2)c2ccccc2N(C)C1=O [Compound E, (2S)-2-{[(3,5-difluorophenyl)acetyl]amino}-N-[(3S)-1-methyl-2-oxo-5-phenyl-2,3-dihydro-1H-1,4-benzodiazepin-3-yl]propanamide]
  Accumulation of EphA7 C-terminal fragment (CTF, band around 50 kDa) on Western blot, indicating inhibited cleavage of EphA7 by γ-secretase: CTF was accumulated
